# From the supplement of paper PMC10307832
# Experiments:
# Test in all cases: relative viability (nuclei count vs DMSO), 5 days (fraction); higher = more cells survive
# XMD14-99 = compound: CN1CCN(CC1)C2=CC(=C(C=C2)NC3=NC(=C(S3)C(=O)C4=C(C=CC=C4Cl)Cl)N)OC [XMD14-99]
# In short: (§1)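 Lung cancer cell lines in 1536-well plates were kept overnight at 37 °C, then pinned with five library-drug doses (not always all listed) spaced by √10 on vehicle-anchored plates. After 5 days without medium change, cells were fixed, permeabilised and Hoechst-stained in one step, imaged at 4×, and nuclei were counted with MetaXpress. Viability is treated-well nuclei divided by vehicle-well nuclei, taken as the median over plates. Plates passed only with control CV below 25% and at least one doubling.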
# AZD1208 = compound: N[C@@H]1CCCN(c2c(/C=C3\SC(=O)NC3=O)cccc2-c2ccccc2)C1 [AZD1208]
# In short: as §1
# XMD14-99 + OSI-027 = compound: CN1CCN(CC1)C2=CC(=C(C=C2)NC3=NC(=C(S3)C(=O)C4=C(C=CC=C4Cl)Cl)N)OC [XMD14-99] + COc1cccc2cc(-c3nc([C@H]4CC[C@H](C(=O)O)CC4)n4ncnc(N)c34)[nH]c12 [OSI-027] (partner 0.5 µM)
# In short: (§2)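 Lung cancer cell lines in 1536-well plates got either a single drug or a fixed anchor-drug dose together with five library-drug doses (not always all listed) in √10 steps, by pin tool, on the day after seeding. Nuclei were counted after 5 days, and relative viability is the treated-to-vehicle ratio of nuclei counts. Values are medians of duplicate plates.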
# AZD1208 + Pemetrexed = compound: N[C@@H]1CCCN(c2c(/C=C3\SC(=O)NC3=O)cccc2-c2ccccc2)C1 [AZD1208] + Nc1nc2[nH]cc(CCc3ccc(C(=O)N[C@@H](CCC(=O)O)C(=O)O)cc3)c2c(=O)[nH]1 [Pemetrexed] (partner 0.2 µM)
# In short: as §2
Cell Line,relative viability (XMD14-99; 0.08 µM),relative viability (XMD14-99; 0.8 µM),relative viability (XMD14-99; 2.53 µM),relative viability (XMD14-99; 8 µM),relative viability (AZD1208; 0.08 µM),relative viability (AZD1208; 0.253 µM),relative viability (AZD1208; 0.8 µM),relative viability (AZD1208; 2.53 µM),relative viability (AZD1208; 8 µM),relative viability (XMD14-99 + OSI-027; first compound 0.08 µM),relative viability (XMD14-99 + OSI-027; first compound 0.8 µM),relative viability (XMD14-99 + OSI-027; first compound 2.53 µM),relative viability (XMD14-99 + OSI-027; first compound 8 µM),relative viability (AZD1208 + Pemetrexed; first compound 0.08 µM),relative viability (AZD1208 + Pemetrexed; first compound 0.253 µM),relative viability (AZD1208 + Pemetrexed; first compound 0.8 µM),relative viability (AZD1208 + Pemetrexed; first compound 2.53 µM),relative viability (AZD1208 + Pemetrexed; first compound 8 µM)
NCI-H520,0.903,0.96,0.932,0.818,0.938,1.17,0.943,0.908,0.754,0.251,0.262,0.231,0.206,0.685,0.703,0.555,0.524,0.446
NCI-H522,0.891,1.01,1.07,1,0.975,0.922,0.816,0.816,0.769,0.742,0.742,0.683,0.72,0.975,0.986,0.979,0.824,0.828
NCI-H596,0.944,1.05,1.01,0.887,0.908,0.951,0.844,0.949,0.677,0.675,0.901,0.609,0.643,0.523,0.507,0.537,0.498,0.407
NCI-H647,0.981,0.99,0.92,0.819,1.02,1.04,0.891,0.892,0.788,0.621,0.71,0.746,0.605,0.19,0.195,0.17,0.188,0.165
NCI-H650,1.02,1,0.98,0.808,1.09,0.972,0.833,0.759,0.73,0.544,0.58,0.464,0.42,0.893,0.939,0.893,0.703,0.867
NCI-H661,0.925,0.948,0.835,0.678,0.993,1.02,1.04,0.981,0.93,0.777,0.673,0.498,0.416,0.956,0.9,0.94,0.942,0.955
NCI-H838,0.911,0.939,0.873,0.658,0.938,0.967,0.841,0.902,0.844,0.481,0.403,0.356,0.298,0.239,0.26,0.243,0.26,0.228
NCI-H1355,0.996,0.999,0.89,0.825,1.03,0.983,0.908,0.876,0.789,0.395,0.367,0.337,0.292,1.1,0.944,0.934,1.04,1.04
NCI-H1395,0.981,0.951,0.997,0.695,1.15,1,0.93,0.913,0.697,0.687,0.639,0.654,0.584,0.937,0.859,0.699,0.787,0.673
NCI-H1437,0.968,0.903,0.814,0.682,1.06,1.13,1.05,1.03,0.939,0.892,0.842,0.804,0.68,0.302,0.307,0.327,0.355,0.322
NCI-H1563,0.926,0.999,0.92,0.833,0.962,0.928,0.952,0.956,0.923,0.753,0.766,0.733,0.641,0.762,0.764,0.734,0.705,0.768
NCI-H1648,0.845,0.713,0.734,0.454,0.981,1.25,0.921,1.04,1.05,0.268,0.25,0.231,0.227,0.626,0.629,0.814,0.891,1.07
NCI-H1650,0.818,0.976,0.805,0.807,0.924,1.1,0.868,0.898,0.88,0.705,0.7,0.49,0.395,0.4,0.421,0.368,0.401,0.478
NCI-H1651,0.972,0.984,0.964,0.845,0.954,1.07,0.83,0.928,0.856,0.815,0.691,0.622,0.531,0.626,0.57,–,0.569,0.555
NCI-H1666,1,0.922,0.999,0.877,0.992,1.06,0.881,0.942,0.959,0.881,0.731,0.799,0.651,0.826,0.874,0.792,0.823,0.896
NCI-H1734,0.969,0.969,0.922,0.754,0.887,0.989,0.874,0.841,0.647,0.556,0.524,0.55,0.437,0.404,0.409,0.442,0.427,0.435
NCI-H1755,0.996,0.974,1.01,0.784,0.988,1.07,0.952,0.983,0.792,0.709,0.712,0.668,0.517,0.451,0.457,0.532,0.426,0.413
NCI-H1792,1.02,0.879,0.818,0.471,1.08,1.05,0.646,0.954,0.664,0.71,0.686,0.657,0.413,0.912,1.11,–,0.698,0.556

Cell Line,relative viability (XMD14-99; 0.08 µM),relative viability (XMD14-99; 0.8 µM),relative viability (XMD14-99; 2.53 µM),relative viability (XMD14-99; 8 µM),relative viability (AZD1208; 0.08 µM),relative viability (AZD1208; 0.253 µM),relative viability (AZD1208; 0.8 µM),relative viability (AZD1208; 2.53 µM),relative viability (AZD1208; 8 µM),relative viability (XMD14-99 + OSI-027; first compound 0.08 µM),relative viability (XMD14-99 + OSI-027; first compound 0.8 µM),relative viability (XMD14-99 + OSI-027; first compound 2.53 µM),relative viability (XMD14-99 + OSI-027; first compound 8 µM),relative viability (AZD1208 + Pemetrexed; first compound 0.08 µM),relative viability (AZD1208 + Pemetrexed; first compound 0.253 µM),relative viability (AZD1208 + Pemetrexed; first compound 0.8 µM),relative viability (AZD1208 + Pemetrexed; first compound 2.53 µM),relative viability (AZD1208 + Pemetrexed; first compound 8 µM)
NCI-H1793,0.881,0.892,0.839,0.688,1.02,1.2,0.794,1.01,0.673,0.269,0.26,0.232,0.199,0.828,0.954,0.716,0.935,0.718
NCI-H1915,0.991,0.958,0.91,0.796,0.995,1.06,0.967,0.875,0.979,0.629,0.548,0.487,0.415,0.452,0.483,0.528,0.462,0.443
NCI-H1944,0.906,0.917,0.817,0.809,0.963,0.898,0.861,0.822,0.639,0.382,0.44,0.358,0.278,0.593,0.652,0.591,0.579,0.535
NCI-H1975,0.992,0.994,0.917,0.788,1.06,1.08,0.909,1.04,0.878,0.825,0.822,0.653,0.535,0.288,0.295,0.282,0.286,0.327
NCI-H1993,0.89,0.987,0.872,0.806,0.931,0.779,0.808,0.818,0.733,0.575,0.555,0.53,0.53,0.481,0.527,0.526,0.568,0.413
NCI-H2009,0.987,1.03,0.887,0.804,1.03,1.07,1.01,0.975,1,0.611,0.607,0.508,0.273,1.01,1.03,0.917,1.11,1.06
NCI-H2023,0.961,0.875,0.953,0.71,0.863,1.01,0.86,0.867,0.769,0.42,0.427,0.299,0.209,0.263,0.207,0.241,0.243,0.229
NCI-H2085,1,0.978,0.961,0.837,0.974,1.09,0.994,1.01,1.05,0.725,0.815,0.624,0.42,0.912,0.971,0.936,0.817,0.893
NCI-H2087,0.957,0.968,0.818,0.483,0.956,1.18,0.821,1.01,1.01,0.524,0.487,0.45,0.299,0.664,0.713,0.475,0.649,0.627
NCI-H2126,0.993,0.991,0.977,0.897,0.998,0.965,0.942,0.866,0.79,0.666,0.66,0.669,0.432,0.649,0.734,0.652,0.634,0.614
NCI-H2170,0.97,1.01,0.995,0.925,0.99,0.994,0.945,0.964,0.64,0.709,0.772,0.65,0.621,0.244,0.289,0.688,0.275,0.268
NCI-H2228,1.12,0.961,0.891,0.398,0.954,1.19,0.953,0.788,0.84,0.687,0.583,0.505,0.199,0.328,0.368,0.357,0.371,0.344
NCI-H2342,0.957,0.932,1.02,0.761,1.07,0.944,0.84,0.945,0.765,0.594,0.674,0.752,0.548,0.869,0.749,0.699,0.738,0.568
NCI-H2347,1.04,1,0.966,0.637,1.02,1.09,1,0.951,1.08,0.401,0.349,0.378,0.276,0.447,0.423,0.468,0.439,0.444
NCI-H2405,0.962,1.02,0.964,0.726,1.01,0.938,0.942,0.964,0.947,0.593,0.606,0.607,0.5,1.01,1,1.02,1.02,0.95
NCI-H3122,1,0.995,0.892,0.694,0.994,0.996,0.932,1.04,0.981,0.815,0.811,0.623,0.163,0.201,0.187,0.195,0.207,0.187
PC-3 [JPC-3],1.08,1.03,0.95,0.818,1.05,1.06,1.08,1.17,1.08,0.769,0.701,0.638,0.541,1.22,1.04,1.09,1.18,1.2
